Experimental data: ChEMBL document CHEMBL5614444, “Advancements in Targeted Therapeutics: Integrating Metabolic Modulation, Immune Engineering, and Biologic Formulation Technologies” (ACS Med Chem Lett, 2024)
Active and inactive are the calls of the source. The calls are words filed in the database; no cut-off is given here.

Tests used:
[1] = target: T1, Peroxisome proliferator-activated receptor gamma (Homo sapiens) (UniProt P37231); test: (§1) Antagonist activity at PPARgamma (unknown origin); details: filed as antagonist
T1 sequence (whole entry): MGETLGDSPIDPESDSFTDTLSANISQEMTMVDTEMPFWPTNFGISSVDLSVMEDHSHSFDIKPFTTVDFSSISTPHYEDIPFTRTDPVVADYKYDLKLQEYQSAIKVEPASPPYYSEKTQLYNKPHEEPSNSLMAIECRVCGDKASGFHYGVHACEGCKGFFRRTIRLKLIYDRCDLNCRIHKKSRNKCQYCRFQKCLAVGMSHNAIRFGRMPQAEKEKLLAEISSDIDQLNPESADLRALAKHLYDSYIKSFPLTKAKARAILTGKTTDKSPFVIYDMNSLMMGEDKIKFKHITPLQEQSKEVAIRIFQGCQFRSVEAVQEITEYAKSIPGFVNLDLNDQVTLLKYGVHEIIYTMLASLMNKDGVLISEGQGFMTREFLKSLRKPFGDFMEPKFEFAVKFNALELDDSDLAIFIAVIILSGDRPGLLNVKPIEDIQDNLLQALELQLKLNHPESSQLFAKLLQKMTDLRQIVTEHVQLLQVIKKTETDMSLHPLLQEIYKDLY

[2] = target: T2, Peroxisome proliferator-activated receptor gamma (Homo sapiens, UniProt P37231); test: as §1
T2 sequence (P37231 whole entry): T1 sequence (whole entry)

[3] = target: T1, Peroxisome proliferator-activated receptor gamma (Homo sapiens); test: Inhibition of PPARgamma (unknown origin)

Activity [1]	Compound	further results
Active	Cc1cc([N+](=O)[O-])ccc1NS(=O)(=O)c1cc(Cl)ccc1Cl	
	O=C(Nc1ccccc1)c1cc([N+](=O)[O-])ccc1Cl	IC50 [2]: 3.3 nM
	COc1ccc2nccc(NC(=O)c3cc([N+](=O)[O-])ccc3Cl)c2c1	inhibition [3]: Active
Active	COP(=O)(OC)OC(c1ccc(Cl)cc1)P(=O)(OC)OC (centres undefined)	
